Data: US9981968B2, “Substituted pyrrolo[2,3-d]pyrimidines for the treatment of cancer and proliferative disorders” (Northwestern University, priority 2013, dated 2018)

Tests used:
[1] = test system: acute leukemia cell lines (THP-1, K562, Kasumi-1, and U937); test: Inhibition of viability of acute leukemia cell lines; type: cell-based, human; conditions: THP-1, K562, Kasumi-1, U937
Experimental: Compounds 381, 383, 409 (as test compounds) and Compound 501 (as a negative control) were administered to a variety of acute leukemia cell lines (THP-1. K562, Kasumi-1, and U937) in order to test their ability to inhibit cell growth as compared to 8-amino adenosine (8NH2-Ado) and 8-chloro adenosine (8Cl-Ado) (as positive controls) as in the previous Examples.

MM.1S cells = test: MTS CellTiter 96 cell proliferation assay, MM.1S; type: cell-based, human
Experimental: Cell viability was assessed by MTS assay as follows.
The MTS CellTiter 96 assay is a colorimetric method to assess the number of viable cells based on the conversion of a tetrazolium compound (MTS) to a formazan product by the mitochondrial dehydrogenase enzyme of the cells. This assay is used to determine the number of viable cells remaining following a drug treatment in comparison to the number of viable cells that are only treated with the drug vehicle (control cells). The amount of formazan product in the control cells is normalized to 100% and the amount of formazan in the drug treated cells is expressed as a percentage of control. This is used to generate dose response curve and estimate the drug concentration that produced a 50% decrease in the number of viable cells.

Compound: FC(F)(F)c1cn(CC2CCNCC2)c2ncnc(Cl)c12 [NUCC-0000381]
- cell viability ([1]; FIGS. 11-14): reduce cell viability significantly
- inhibitory activity relative to positive controls ([1]; versus 8NH2-Ado and 8Cl-Ado): inhibitory activities approaching those of 8NH2-Ado and 8Cl-Ado
- decreasing cell proliferation (MM.1S cells; 0.1-10 μM, MTS assay, FIG. 1, compared with 8-amino adenosine): as effective in decreasing cell proliferation as 8-amine-adenosine
- IC50 (MM.1S cells; Homo sapiens, MM1.S, MTS cell proliferation assay, read-out: Estimated IC50): 600 nM
